In US20260102356A1, “METHOD FOR LOADING DIMERIC CD24 INTO HEK293 CELL EXTRACELLULAR VESICLES WITH ADAM10 GENE KNOCKED OUT” (Exocure Sweden AB, priority 2022, published 2026):
“And” between values parts separate entries of the source, which are not always exact repeats. Identical values can stand only once.

What was measured:
Format in all cases: cell-based, human
PBMCs [1] = test: PBMC inflammation model (anti-CD3/anti-CD28), IFN-γ in supernatant, Example 4; conditions: for IFN-γ_pg/mL-Mean / Detected IFN-γ concentration: PBMC supernatant, anti_hCD3 + anti_hCD28 1 μg/mL, treatment 10 μg/mL, 72 h; for Detected IFN-γ concentration: single replicates
Method: (§1) Detection of the immunosuppressive activity of different EVs and proteins in a PBMC inflammation model: PBMCs were used for the experiment. An inflammation model was established by using 1 g/ml anti-human CD3 Antibody (coated) and 1 μg/ml anti-human CD28 Antibody (free). The positive drug (dexamethasone), free ApoE protein, and various doses of engineered dimeric ApoE-loaded EV were administered for 72 h, and their inhibitory activity on the inflammatory response of PBMCs was assessed.

PBMCs [2] = test: PBMC inflammation model (anti-CD3/anti-CD28), IFN-γ in supernatant, Example 6
Method: • (1) Preparation of dimeric CD24-Exosomes: The plasmid construction, cell line screening and exosome preparation processes were consistent with those in Example 1. • (2) Loading of MyD88 Inhibitor Polypeptide: dimeric CD24 exosomes were mixed well with MyD88 inhibitor polypeptide (1 mg of MyD88 added to 1E+12 exosome particles). The solution was adjusted to a pH of 8.0 (or 9.0, 10.0) with Na2CO3, and then purified using Capto core700 to remove free MyD88 inhibitor polypeptide. The flow-through was collected to obtain CD24 exosomes loaded with MyD88 inhibitor polypeptide. The loading amount of MyD88 inhibitor polypeptide was assessed using ELISA (peptide loading technology referenced in patent: 202111263036.5). • (3) Detection of the immunosuppressive activity of different EVs and proteins in a PBMC inflammation model: PBMCs were used for the experiment. An inflammation model was established by using 1 μg/ml anti-human CD3 Antibody (coated) and 1 μg/ml anti-human CD28 Antibody (free). The positive drug (dexamethasone), free CD24-Fc fusion protein, and various doses of engineered dimeric CD24 loaded-EV and engineered dimeric CD24+MyD88 inhibitor polypeptide loaded-EV were administered for 72 h or 120 h, and their inhibitory activity on the inflammatory response of PBMCs was assessed

PBMCs [3] = test: PBMC inflammation model (anti-CD3/anti-CD28), IFN-γ in supernatant, Example 2; conditions: anti_hCD3 + anti_hCD28 1 μg/mL, treatment 10 μg/mL, 72 h
Method: as §1, with “1 μg/ml” for “1 g/ml”, “free CD24-Fc” for “free ApoE”, “dimeric CD24-loaded EV and monomer CD24-loaded” for “dimeric ApoE-loaded”

[4] = in vitro PBMC inflammation model

With ApoE: free ApoE protein, comparator the IFN-γ_pg/mL-Mean (PBMCs [1]) was 18092.0 pg/mL, the “Detected IFN-γ concentration” value (PBMCs [1]) was 18563 pg/mL and 17689 pg/mL and 18024 pg/mL and the “inflammation inhibitory activity compared to the model group” value (PBMCs [1]; [4]) was “better inflammation inhibitory activity”. The “inflammation inhibitory activity compared to the model group” value (PBMCs [2]; [4]) was “better inflammation inhibitory activity”.
With C[C@@H]1C[C@H]2[C@@H]3CCC4=CC(=O)C=C[C@]4(C)[C@@]3(F)[C@@H](O)C[C@]2(C)[C@@]1(O)C(=O)CO [Dexamethasone, dexamethasone] the IFN-γ_pg/mL-Mean (PBMCs [1]) was 5.8 pg/mL, the “Detected IFN-γ concentration” value (PBMCs [1]) was 5.5 pg/mL and 5.8 pg/mL and 6.2 pg/mL and the IFN-γ_pg/mL-Mean (PBMCs [2]; PBMC supernatant, treatment time 72 h, treatment 10 μg/mL) was 4.5 pg/mL. The “Detected IFN-γ concentration” value (PBMCs [2]; PBMC supernatant, treatment time 72 h, treatment 10 μg/mL, single replicates) was 4.32 pg/mL and 4.76 pg/mL and 4.5 pg/mL, the IFN-γ_pg/mL-Mean (PBMCs [3]) was 6.0 pg/mL and the “Detected IFN-γ concentration” value (PBMCs [3]; single replicates) was 5.62 pg/mL and 5.78 pg/mL and 6.51 pg/mL.
